Laboratory results from PMC8151276, “An Integrated Approach toward NanoBRET Tracers for Analysis of GPCR Ligand Engagement” (Molecules, 2021).

Columns and labels:
Assay type in all cases: binding
GABBR2 = biological target: T1, GABBR2 (Homo sapiens, UniProt O75899); test: NanoBRET screen HiBiT-GABBR2 in HEK293
T1 construct: purchased Promega (in-house HiBiT-GPCR construct library, NanoBRET)
T1 sequence (O75899 42-941): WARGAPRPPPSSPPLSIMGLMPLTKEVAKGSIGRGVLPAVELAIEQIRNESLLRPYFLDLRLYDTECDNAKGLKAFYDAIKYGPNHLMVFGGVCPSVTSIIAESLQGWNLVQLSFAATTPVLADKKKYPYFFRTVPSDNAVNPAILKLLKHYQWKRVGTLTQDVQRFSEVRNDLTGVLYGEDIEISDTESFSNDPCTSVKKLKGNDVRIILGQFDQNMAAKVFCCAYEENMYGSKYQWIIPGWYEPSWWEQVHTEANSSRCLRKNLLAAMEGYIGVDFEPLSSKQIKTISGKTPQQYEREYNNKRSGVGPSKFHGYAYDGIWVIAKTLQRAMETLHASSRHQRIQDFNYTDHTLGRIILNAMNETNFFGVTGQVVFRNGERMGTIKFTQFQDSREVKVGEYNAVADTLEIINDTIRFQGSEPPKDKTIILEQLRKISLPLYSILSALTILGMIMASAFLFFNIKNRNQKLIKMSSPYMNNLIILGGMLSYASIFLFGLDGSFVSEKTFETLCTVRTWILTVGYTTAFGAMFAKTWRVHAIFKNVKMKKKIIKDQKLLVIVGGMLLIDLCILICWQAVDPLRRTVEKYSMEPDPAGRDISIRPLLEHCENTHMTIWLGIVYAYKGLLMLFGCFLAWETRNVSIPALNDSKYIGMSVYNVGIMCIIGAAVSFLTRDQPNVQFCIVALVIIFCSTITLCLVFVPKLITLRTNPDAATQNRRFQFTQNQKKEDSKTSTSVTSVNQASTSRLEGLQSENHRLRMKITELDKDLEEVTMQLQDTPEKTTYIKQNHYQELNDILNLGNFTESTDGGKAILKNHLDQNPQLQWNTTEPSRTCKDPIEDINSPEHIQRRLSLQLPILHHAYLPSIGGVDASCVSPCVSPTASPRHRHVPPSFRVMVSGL
Description: (§1) Each tracer candidate was screened across the entire library of HiBiT-GPCR constructs using NanoBRET as the detection modality. As depicted in Figure 4A, the specificity of interactions was evaluated through decrease in BRET due to competitive displacement of a bound tracer by excess parental compound. Each tracer was analyzed for binding to each HiBiT-GPCR fusion in the absence and in the presence of competing parental compound. Briefly, HEK293 cells were transfected with HiBiT-GPCR constructs diluted into promoterless DNA to reduce expression and maximize translocation to the cell surface. Each tracer candidate was then screened at concentrations of 1 μM and 0.1 μM across cells expressing these fusions. Cells were treated for 1.5 h with tracer either alone or in the presence of 20 μM competing parental compound (i.e., control). BRET was measured upon addition of purified LgBiT and subsequent complementation with HiBiT genetically fused to a GPCR. The specificity of interactions was assessed through a decrease in BRET signal due to competitive displacement of the bound tracer. To further gauge the robustness of these interactions, the fold response over the control (i.e., BRETtracer/BRETcontrol) was calculated. We chose a 1.5-fold response, which translates to ≥7-fold signal over noise as the minimal threshold required to score an interaction as positive. […]. Below we highlight the screening results obtained for our exemplary fluorescent tracers based on Clozapine, Amitriptyline and AZD1283.
(§2) HiBiT-GPCR DNA constructs were diluted in 10 mM Tris pH 8 to a final concentration of 0.01 μg/μL, arrayed in 96-well plates and stored at −20 °C. For transfection, HEK293 cells were suspended in Opti-MEM (without phenol red) supplemented with 2% fetal bovine serum (Seradigm) and 100 units/mL penicillin–streptomycin (Gibco) at a final concentration of 220,000 cells/mL and dispensed into white 96-well plates at 90 μL/well. Subsequent transfections and screens were carried using an Agilent Bravo Automated Liquid Handling Platform. First, the 96-well HiBiT DNA arrays were diluted 25-fold in Opti-MEM (without serum or phenol red) to a final concentration of 0.0004 μg/μL and 20 μL of the diluted DNAs were transferred into new 96-well plates. Next, promoterless carrier DNA (1 μg/μL) was diluted 25-fold (0.04 μg/μL) and then dispensed into the diluted arrays at 20 μL/well. Following brief mixing, Viafect transfection reagent (Promega) diluted 16-fold into Opti-MEM was dispensed into the plates at 40 μL/well. After mixing by pipetting, plates were incubated for 10 min on the pipetting station deck. The DNA-transfection reagent complexes were then added to plates containing cells. To facilitate the screen, 10 μL of DNA-transfection reagent complexes were added in duplicates to the top 4 and bottom 4 rows, resulting in two identical 48-well arrays per plate. Plates with transfected cells were incubated for 18–20 h at 37 °C/5% CO2. A screen of each tracer across the entire library using two different concentrations requires duplicate plates of transfected cells. Depending on the number of tracers being screened, transfections can be scaled up using the same ratios. The next day, for each tracer, four 20× screening solutions in tracer dilution buffer (Promega) were prepared: two duplicates at final concentration of 20 μM and two duplicates at a final concentration of 2 μM. A competing unmodified compound was added to one of each duplicate at a final concentration of 400 μM. The four resulting solutions were diluted 4-fold in Opti-MEM without serum or phenol red to generate 5× solutions (5 µM and 0.5 µM tracer +/− 100 μM competing compound). To screen the library, a BioTek MultiFlo FX liquid dispenser was used to dispense 22.5 µL of tracer solution to the top 4 rows and 22.5 µL tracer + competing compound solution to the 4 bottom rows. Plates were briefly mixed on an orbital shaker and incubated for 1.5 h at room temperature. […]

P2RY12 = biological target: T2, P2RY12 (Homo sapiens, UniProt Q9H244); test: NanoBRET screen HiBiT-P2RY12 in HEK293
T2 construct: purchased Promega (in-house HiBiT-GPCR construct library, NanoBRET)
Description: as §1, §2

RXFP2 = biological target: T3, RXFP2 (Homo sapiens, UniProt Q8WXD0); test: NanoBRET screen HiBiT-RXFP2 in HEK293
T3 construct: purchased Promega (in-house HiBiT-GPCR construct library, NanoBRET)
Description: as §1, §2

T2 sequence (Q9H244 whole entry, one chain of several): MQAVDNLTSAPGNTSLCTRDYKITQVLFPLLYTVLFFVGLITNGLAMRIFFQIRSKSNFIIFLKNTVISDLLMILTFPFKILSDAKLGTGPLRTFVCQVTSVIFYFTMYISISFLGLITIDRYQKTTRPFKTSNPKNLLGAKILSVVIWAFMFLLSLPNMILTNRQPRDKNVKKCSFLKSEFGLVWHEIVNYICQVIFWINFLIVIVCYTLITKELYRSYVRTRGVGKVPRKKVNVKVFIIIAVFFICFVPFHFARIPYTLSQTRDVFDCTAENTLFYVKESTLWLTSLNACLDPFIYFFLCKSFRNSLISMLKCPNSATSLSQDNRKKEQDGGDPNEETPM
T3 sequence (Q8WXD0 whole entry): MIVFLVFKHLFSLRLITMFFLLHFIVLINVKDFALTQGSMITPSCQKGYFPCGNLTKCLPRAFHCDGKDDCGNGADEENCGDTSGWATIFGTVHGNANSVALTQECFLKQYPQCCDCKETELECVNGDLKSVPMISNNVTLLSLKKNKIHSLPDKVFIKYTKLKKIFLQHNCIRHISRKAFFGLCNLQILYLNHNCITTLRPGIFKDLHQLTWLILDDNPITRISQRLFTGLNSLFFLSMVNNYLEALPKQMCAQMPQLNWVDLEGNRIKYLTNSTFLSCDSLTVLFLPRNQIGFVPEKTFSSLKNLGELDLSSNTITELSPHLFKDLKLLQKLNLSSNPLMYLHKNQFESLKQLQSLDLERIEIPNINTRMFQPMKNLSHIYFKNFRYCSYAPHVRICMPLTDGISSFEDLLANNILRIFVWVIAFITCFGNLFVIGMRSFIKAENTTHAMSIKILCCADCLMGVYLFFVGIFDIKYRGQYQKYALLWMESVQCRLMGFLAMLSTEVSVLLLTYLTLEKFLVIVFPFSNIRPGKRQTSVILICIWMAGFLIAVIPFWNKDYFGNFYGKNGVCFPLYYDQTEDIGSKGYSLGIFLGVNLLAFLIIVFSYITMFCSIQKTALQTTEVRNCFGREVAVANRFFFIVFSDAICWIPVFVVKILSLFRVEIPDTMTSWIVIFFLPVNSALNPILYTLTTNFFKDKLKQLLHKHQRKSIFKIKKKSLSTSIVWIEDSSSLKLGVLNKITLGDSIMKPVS

Row | SMILES | NanoBRET Fold Response (GABBR2; GABBR2, tracer 0.1μM) | NanoBRET Fold Response (GABBR2; GABBR2, tracer 1μM) | NanoBRET Fold Response (P2RY12; P2RY12, tracer 0.1μM) | NanoBRET Fold Response (P2RY12; P2RY12, tracer 1μM) | NanoBRET Fold Response (RXFP2; RXFP2, tracer 0.1μM) | NanoBRET Fold Response (RXFP2; RXFP2, tracer 1μM) | also measured
1 | O=C(CCc1ccc2n1[B-](F)(F)[N+]1=C(c3ccc[nH]3)C=CC1=C2)NCc1ccc(C(=O)NCCOCCC(=O)N[C@@H]2CC[C@@]3(O)[C@H]4Cc5ccc(O)c6c5[C@@]3(CCN4CC3CC3)[C@H]2O6)cc1 [Naltrexone-3-NB590] | 0.80 | 1.11 | 1.30 | 0.88 | 1.31 | 0.72 | 
2 | CCCn1c(=O)c2[nH]c(-c3ccc(OCC(=O)NCCNC(=O)CCOCCNC(=O)c4ccc(CNC(=O)CCc5ccc6n5[B-](F)(F)[N+]5=C(c7ccc[nH]7)C=CC5=C6)cc4)cc3)nc2n(CCC)c1=O [XAC-3-NB590] | 1.02 | 1.11 | 0.91 | 1.04 | 1.20 | 1.28 | 
3 | CC(C)N(CC[C@H](c1ccccc1)c1cc(CCNC(=O)c2ccc(CNC(=O)CCc3ccc4n3[B-](F)(F)[N+]3=C(c5ccc[nH]5)C=CC3=C4)cc2)ccc1O)C(C)C [Tolterodine-BZ-NB590] | 0.87 | 0.71 | 1.08 | 0.91 | 0.34 | 0.83 | 
4 | COc1ccc2[nH]c(-c3ccc(CNC(=O)CCOCCOCCOCCOCCNC(=O)CCc4ccc5n4[B-](F)(F)[N+]4=C(c6ccc[nH]6)C=CC4=C5)cc3)c(CCNC(C)=O)c2n1 [AzomelatoninICO9-2-NB590] |  |  |  |  |  |  | NanoBRET Fold Response (GABBR2; 0.1μM tracer): 0.87; NanoBRET Fold Response (GABBR2; 1μM tracer): 1.13; NanoBRET Fold Response (P2RY12; 0.1μM tracer): 1.15; NanoBRET Fold Response (P2RY12; 1μM tracer): 1.05; NanoBRET Fold Response (RXFP2; 0.1μM tracer): 1.23; NanoBRET Fold Response (RXFP2; 1μM tracer): 0.59
5 | CN1CCN(C2=Nc3cc(Cl)ccc3N(CC(=O)NCCOCCOCCOCCOCCNC(=O)CCc3ccc4n3[B-](F)(F)[N+]3=C(c5ccc[nH]5)C=CC3=C4)c3ccccc32)CC1 [Clozapine-c-2-NB590] |  |  |  |  |  |  | NanoBRET Fold Response (GABBR2; GABBR2, 0.1μM tracer): 0.99; NanoBRET Fold Response (GABBR2; GABBR2, 1μM tracer): 1.02; NanoBRET Fold Response (P2RY12; P2RY12, 0.1μM tracer): 0.99; NanoBRET Fold Response (P2RY12; P2RY12, 1μM tracer): 0.95; NanoBRET Fold Response (RXFP2; RXFP2, 0.1μM tracer): 0.62; NanoBRET Fold Response (RXFP2; RXFP2, 1μM tracer): 1.17
6 | COc1ccccc1N1CCN(CCCCN2C(=O)c3ccc(CNC(=O)CCOCCNC(=O)c4ccc(CNC(=O)CCc5ccc6n5[B-](F)(F)[N+]5=C(c7ccc[nH]7)C=CC5=C6)cc4)cc3C2=O)CC1 [NAN-190-3-NB590] | 1.03 | 1.10 | 1.12 | 1.10 | 0.63 | 0.89 | 
7 | Cc1nc2n(c(=O)c1CCN1CCC(c3noc4cc(F)ccc34)CC1)CCCC2OC(=O)NCCOCCOCCOCCOCCNC(=O)CCc1ccc2n1[B-](F)(F)[N+]1=C(c3ccc[nH]3)C=CC1=C2 (stereo not drawn) [Risperidone-2-NB590] | 1.07 | 1.17 | 1.05 | 0.95 | 1.20 |  | 
8 | O=C(CCOCCOCCOCCOCCNC(=O)CCc1ccc2n1[B-](F)(F)[N+]1=C(c3ccc[nH]3)C=CC1=C2)NCCCN1CCN(C2=Nc3ccccc3Oc3ccc(Cl)cc32)CC1 [Loxapine-a-2-NB590] | 1.03 | 0.85 | 0.99 | 0.84 | 0.94 | 0.64 | 
9 | COc1ccccc1N1CCN(CCCCN2C(=O)c3ccc(CNC(=O)CCOCCOCCOCCOCCNC(=O)CCc4ccc5n4[B-](F)(F)[N+]4=C(c6ccc[nH]6)C=CC4=C5)cc3C2=O)CC1 [NAN-190-2-NB590] | 0.95 | 1.04 |  |  | 0.78 | 1.17 | 
10 | CC(C)N(CC[C@H](c1ccccc1)c1cc(CCNC(=O)CCOCCOCCOCCOCCNC(=O)CCc2ccc3n2[B-](F)(F)[N+]2=C(c4ccc[nH]4)C=CC2=C3)ccc1O)C(C)C [Tolterodine-2-NB590] | 1.15 | 1.02 | 0.93 | 0.95 | 1.11 | 1.30 | 
11 | N#CN=C(NCCCOc1cccc(CN2CCCCC2)c1)NCCNC(=O)CCOCCOCCOCCOCCNC(=O)CCc1ccc2n1[B-](F)(F)[N+]1=C(c3ccc[nH]3)C=CC1=C2 [Aminopotentidine-2-NB590] | 1.03 | 0.94 | 0.94 | 0.99 | 0.83 | 0.83 | 
12 | CCOC(=O)c1cc(C#N)c(N2CCC(C(=O)NS(=O)(=O)Cc3ccccc3/C=C/C(=O)NCCNC(=O)CCc3ccc4n3[B-](F)(F)[N+]3=C(c5ccc[nH]5)C=CC3=C4)CC2)nc1C [AZD1283-1-NB590] |  |  |  |  |  |  | NanoBRET Fold Response (GABBR2; GABBR2, 0.1μM): 0.89; NanoBRET Fold Response (GABBR2; GABBR2, 1μM): 1.01; NanoBRET Fold Response (P2RY12; P2RY12, 0.1μM): 3.11; NanoBRET Fold Response (P2RY12; P2RY12, 1μM): 2.18; NanoBRET Fold Response (RXFP2; RXFP2, 0.1μM): 1.25; NanoBRET Fold Response (RXFP2; RXFP2, 1μM): 1.29
13 | CN(C)CCC=C1c2ccccc2CCc2ccc(C(=O)NCCNC(=O)CCOCCOCCOCCOCCNC(=O)CCc3ccc4n3[B-](F)(F)[N+]3=C(c5ccc[nH]5)C=CC3=C4)cc21 [Amitriptyline-a-2-NB590] |  |  |  |  |  |  | NanoBRET Fold Response (GABBR2; tracer at 0.1μM): 1.08; NanoBRET Fold Response (GABBR2; tracer at 1μM): 0.95; NanoBRET Fold Response (P2RY12; tracer at 0.1μM): 1.14; NanoBRET Fold Response (P2RY12; tracer at 1μM): 0.93
14 | CN(CCC=C1c2ccccc2CCc2ccccc21)C(=O)CCOCCOCCOCCOCCNC(=O)CCc1ccc2n1[B-](F)(F)[N+]1=C(c3ccc[nH]3)C=CC1=C2 [Amitriptyline-e-2-NB590] |  |  |  |  |  |  | NanoBRET Fold Response (GABBR2; tracer at 1μM): 1.08; NanoBRET Fold Response (P2RY12; tracer at 1μM): 1.05
